Structures can show the parent of a compound that is named as a salt.

T2 sequence (P34969 1-445 isoform P34969-2): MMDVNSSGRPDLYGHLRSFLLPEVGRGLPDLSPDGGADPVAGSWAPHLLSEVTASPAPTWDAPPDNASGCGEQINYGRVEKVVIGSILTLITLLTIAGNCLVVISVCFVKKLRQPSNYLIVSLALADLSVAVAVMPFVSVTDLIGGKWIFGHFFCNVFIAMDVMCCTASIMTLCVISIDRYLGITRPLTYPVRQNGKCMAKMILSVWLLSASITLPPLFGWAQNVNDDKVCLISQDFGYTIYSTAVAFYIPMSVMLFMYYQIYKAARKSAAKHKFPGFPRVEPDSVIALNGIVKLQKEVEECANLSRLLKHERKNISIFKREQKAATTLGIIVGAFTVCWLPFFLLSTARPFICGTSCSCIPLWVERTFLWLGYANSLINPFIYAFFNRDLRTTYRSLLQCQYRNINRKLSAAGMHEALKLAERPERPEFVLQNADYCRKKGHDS
T1 sequence (P28223 whole entry): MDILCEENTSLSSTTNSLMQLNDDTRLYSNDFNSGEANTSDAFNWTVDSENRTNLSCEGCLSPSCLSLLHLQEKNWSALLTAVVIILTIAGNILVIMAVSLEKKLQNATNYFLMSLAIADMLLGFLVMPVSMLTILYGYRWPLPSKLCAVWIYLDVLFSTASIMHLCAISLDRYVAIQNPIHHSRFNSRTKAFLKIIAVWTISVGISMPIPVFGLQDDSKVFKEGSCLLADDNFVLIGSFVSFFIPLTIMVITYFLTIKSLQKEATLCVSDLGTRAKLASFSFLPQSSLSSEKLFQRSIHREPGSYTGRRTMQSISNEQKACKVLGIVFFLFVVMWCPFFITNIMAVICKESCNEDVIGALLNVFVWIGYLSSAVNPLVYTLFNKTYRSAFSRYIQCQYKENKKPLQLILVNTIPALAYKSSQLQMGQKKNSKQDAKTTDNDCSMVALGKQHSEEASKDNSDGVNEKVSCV

The first experiment has as its target T1, human 5-HT2A receptor (Homo sapiens, UniProt P28223).
T1 construct: expressed in transfected cells; host or cells: HEK293, transient transfection
Kind of experiment: Radioligand binding assay with [3H]ketanserin, membranes of HEK293 cells transiently transfected with human 5-HT2A receptor. The following applies: 5-HT2A ligands, values are pKd ± half-range, read-out: Binding affinity (pKd value) (pKd ± SEM) (converted). How it is done:
(§1) Binding assays were performed in 96-well, round-bottom microtiter plates with total reaction volumes of 50-200 μl, containing the indicated concentration of [^3H]GR113808 with or without competing unlabelled ligand in a binding buffer containing 50 mM Tris-HCl (pH 7.5 at RT), 1 mM EDTA, 5 mM EGTA, 2 mM MgCl2, 1 mM ascorbate, 0.1% BSA and 100 μM GTP. The plates were incubated at 23° C. for 60 min and harvested onto UniFilter™-96 GF/C™ (Packard Instrument Co., Meriden, Conn., USA), presoaked in 0.3% polyethyleneimine (Sigma), using a Packard FilterMate Universal Harvester with 96-well format, and washed 4-6 times with approximately 0.25 ml/well of ice-cold buffer, containing 50 mM Tris-HCl (pH 7.0 at RT) and 2 mM MgCl2. The filters were dried and counted at approximately 40% efficiency in a Top-Count liquid scintillation counter (Packard), using 20 μl per filter well of Micro-Scint liquid scintillation cocktail (Packard).
The same materials and methods described in example 83 were used for the biological testing of hydrophilic 5-HT7 and 5-HT2A ligands. Membrane preparations of HEK293 cell lines stably expressing human 5-HT7(a) receptors (Krobert et al. 2001), or HEK293 cells transiently transfected with human 5-HT2A receptor were used in the binding assays. […]
On to `COc1cc(OC)c(C(=O)CCCCN2CCC3(CC2)NC(=O)NC3=O)cc1NS(=O)(=O)c1ccc(C(F)(F)F)cc1` [RS102221, 8-(5-(2,4-Dimethoxy-5-(4-trifluoromethylphenylsulphonamido)phenyl-5-oxopentyl]-1,3,8-triazaspiro[4.5]decane-2,4-dione hydrochloride, reference compound], for which the Kd is 4.57 µM.

Regarding `COC(=O)c1ccc(CN2CCC(NC(=O)C34CC5CC(CC(C5)C3)C4)C2)cc1` (centres unmarked) [Example 72], the Kd was 49 µM.

Another experiment has as its target T2, human 5-HT7(a) receptors (Homo sapiens, UniProt P34969).
T2 construct: expressed in transfected cells
Kind of experiment: Radioligand binding assay with [3H]5-CT, membranes of HEK293 cells stably expressing human 5-HT7(a) receptors. The settings on record: 5-HT7 ligands, values are pKd ± half-range, read-out: Binding affinity (pKd value) (pKd ± SEM) (converted). How it is done:
as §1
The same materials and methods described in example 83 were used for the biological testing of hydrophilic 5-HT7 and 5-HT2A ligands. Membrane preparations of HEK293 cell lines stably expressing human 5-HT7(a) receptors (Krobert et al. 2001), or HEK293 cells transiently transfected with human 5-HT2A receptor were used in the binding assays. 5-Carboxamido [^3H]tryptamine trifluoroacetate ([^3H]5-CT) and [^3H]ketanserin were used as radioligands in binding assays testing 5-HT7 and 5-HT2A ligands, respectively.
[^3H]5-CT (91 Ci/mmol) was from Amersham (Buckinghamshire, England). [^3H]ketanserin (72.2 Ci/mmol) was from Perkin Elmer (Boston, Mass., USA).
Turning to `O=C(O)c1ccc(CN2CC=C(c3c[nH]c4ccccc34)CC2)cc1` [Example 69], the Kd was 81.3 µM. `COC(=O)c1ccc(CN2CC=C(c3c[nH]c4ccccc34)CC2)cc1` [Example 68]: the Kd was 11.5 µM.

With `O=C(O)c1ccc(CN2CCN(CCCCC34CCCc5cccc(c53)NC4=O)CC2)cc1` (centres unmarked) [Example 76], the Kd is 135 µM. Still for that read-out and setting: for `CCOC(=O)CCCN1CC=C(c2c[nH]c3ccccc23)CC1` [Example 70] the value was 0.661 µM.

For the molecule `COC(=O)c1ccc(CN2CC=C(c3c[nH]c4ccc(OC)cc34)CC2)cc1` [Example 9], the Kd was 8.51 µM. Same read-out and setting: for `COC(=O)c1ccc(CN2CCN(CCCCC34CCCc5cccc(c53)NC4=O)CC2)cc1` (centres unmarked) [Example 75] the value was 15.8 µM.

Source of the values: patent US20090029979A1, “5-HTX MODULATORS” (BIO-MEDISINSK INNOVASJON AS, priority 2005, published 2009).
